Assay results taken from patent US20040034036A1, “N-(3,5-dichloro-2-methoxyphenyl)-4-methoxy-3-piperazin-1-yl-benzenesulfonamide” (priority 2000, published 2004).

Columns and labels:
[1] = MEST (Maximal electroshock seizure threshold) test; type: in vivo; settings: procedures described by Upton et al.
[2] = oral bioavailability; settings: in vivo
[3] = CNS penetration; type: in vivo; settings: relative to N-(2,3,5-Trichlorophenyl)-4methoxy-3-piperazin-1-ylbenzenesulfonamide (Example 136 of WO 99/02502)

COc1ccc(S(=O)(=O)Nc2cc(Br)cc(F)c2Br)cc1N1CCNCC1 [Example 140 of WO 99/02502, N-(2,5-Dibromo-3-fluorophenyl)-4-methoxy-3-piperazin-1-ylbenzenesulfonamide, reference compound]
effect in MEST test [1]: pro-convulsant effect

COc1ccc(S(=O)(=O)Nc2cc(Cl)cc(Cl)c2OC)cc1N1CCNCC1 [compound of formula (I), N-(3,5-Dichloro-2-methoxy-phenyl)-4-methoxy-3-piperazin-1-yl-benzenesulfonamide]
oral bioavailability [2]: high | effect in MEST test [1]: strongly anti-convulsant effect | CNS penetration [3]: enhanced
